Columns and labels:
[1] = RSV human challenge study: safety (adverse events, clinical and laboratory tests, ECG); assay type: in vivo
Source text: Twice-daily collection of nasal wash samples allowed measurement of viral load via RT-qPCR and quantitative culture. RT-qPCR results were reported as PFUe/ml when the standard curve included in each assay contained a known infectious amount (PFU) of RSV, as described previously ([30]). Subjects reported the occurrence and severity of symptoms three times daily using a 10-item subject symptom diary card as previously reported ([12]) (see Supplemental Methods). Throughout the quarantine period, used tissues were collected and weighed daily, and total nasal mucus weight was recorded. PK assessments were based on venous blood samples. Safety assessments included measurement of vital signs, standard 12-lead ECG recordings, spirometry, a complete physical examination, and a respiratory-directed physical examination. AEs were monitored daily, coded according to the Medical Dictionary for Regulatory Activities Version 20.0, and graded according to the National Cancer Institute Common Terminology Criteria for Adverse Events Version 4.0 (see Supplemental Methods for further details).
The primary efficacy analysis population (the ITT-I analysis set) comprised all randomized subjects who received challenge virus and at least one dose of study drug and met the criterion for laboratory-confirmed RSV infection (presence of detectable RSV). Sensitivity analyses were based on a subset of the ITT-I population who had first detectable RSV infection prior to study drug administration (the ITT-A analysis set) and a fixed time period of 6.5 days (comprising data for all subjects for 6.5 days of evaluation after the first dose, regardless of the staggered commencement of dosing). The safety analysis set comprised all subjects who received challenge virus; the PK analysis set comprised all subjects who received the challenge virus and provided at least one postdose PK result. […]
unexpected, in the opinion of the investigator, were captured as AEs. Following the viral challenge, upper and lower respiratory tract symptoms identified by the directed physical examination were expected, presumed to represent virus infection consequent to viral challenge and not captured as an AE unless they met the criteria for an AE and were deemed clinically significant in the opinion of the investigator. AEs were monitored daily from screening (day –2) through to the follow -up visit (day 28) and coded to system organ class and preferred term according to the Medical Dictionary for Regulatory Activities Version
20.0. AEs were graded according to the National Cancer Institute Common Terminology Criteria for Adverse Events Version 4.0, andthe relationship to the investigational medical product or to challenge virus was recorded. An AE with an onset date/time after […]
that were considered by the investigator to be causally related to challenge virus can be included in the analysis of AEs.
Outcomes. Safety outcomes included the occurrence of AEs. PK outcomes included the maximum plasma concentration, the minimum plasma concentration, the time to maximum plasma concentration, and the area under the plasma concentration-time curve with a dosing interval, calculated by the linear trapezoidal rule.

[2] = tested on: RSV-B isolates; set-up: method as in ref 16 = [16]; 16. Cockerill GS , Bedernjak A , Brookes D , Dowey R , Harland R , Johnson SM , Mathews N , Paradowski M , Peeples M , Scott C , Steadman M , Taylor G , Thom M , Thomas E , Ward SE , Watterson D , You; details: n = 16 isolates; cited from earlier work

For `NCc1ccc2c(c1)nc(CN1C(=O)C3(CC3)c3ccc(F)cc31)n2CCCC(F)(F)F` [RV521], the “TEAE Vomiting” value ([1]; 200 mg, safety analysis set) was 1 (5) No. of subjects (%), the “Grade 2 TEAEs, number of events” value ([1]; 350 mg) was 4 and the “Subjects with gastrointestinal TEAEs” value ([1]; 350 mg) was 59%. For the same molecule, the “Subjects with grade 2 TEAEs” value ([1]; 350 mg) was 3 subjects, the “TEAE Abdominal discomfort” value ([1]; 350 mg, safety analysis set) was 1 (5) number of subjects (%) and the “TEAE Abdominal distention” value ([1]; 350 mg, safety analysis set) was 1 (5) number of subjects (%). The “TEAE Abdominal pain (Table 4)” value ([1]; 350 mg, safety analysis set) was 5 (23) No. of subjects (%), the “TEAE Abdominal pain (Table S4, listed apart from Abdominal pain lower)” value ([1]; 350 mg, safety analysis set) was 4 (18) number of subjects (%) and the “TEAE Abdominal pain lower” value ([1]; 350 mg, safety analysis set) was 1 (5) number of subjects (%). The “TEAE Blood and lymphatic system disorders” value ([1]; 350 mg, safety analysis set) was 0 number of subjects (%), the “TEAE Cardiac disorders” value ([1]; 350 mg, safety analysis set) was 0 number of subjects (%) and the “TEAE Catheter site erythema” value ([1]; 350 mg, safety analysis set) was 1 (5) number of subjects (%). For the same molecule, the “TEAE Catheter site paraesthesia” value ([1]; 350 mg, safety analysis set) was 0 number of subjects (%), the “TEAE Decreased appetite” value ([1]; 350 mg, safety analysis set) was 0 number of subjects (%) and the “TEAE Diarrhea” value ([1]; 350 mg, safety analysis set) was 9 (41) No. of subjects (%). The “TEAE Dizziness” value ([1]; 350 mg, safety analysis set) was 1 (5) number of subjects (%), the “TEAE Epistaxis” value ([1]; 350 mg, safety analysis set) was 0 number of subjects (%) and the “TEAE Eye disorders” value ([1]; 350 mg, safety analysis set) was 0 number of subjects (%). For the same molecule, the “TEAE Eye pain” value ([1]; 350 mg, safety analysis set) was 0 number of subjects (%), the “TEAE Food poisoning” value ([1]; 350 mg, safety analysis set) was 0 number of subjects (%) and the “TEAE Gastroenteritis” value ([1]; 350 mg, safety analysis set) was 1 (5) number of subjects (%). For the same molecule, the “TEAE Gastrointestinal disorders” value ([1]; 350 mg, safety analysis set) was 13 (59) number of subjects (%), the “TEAE General disorders and administration site conditions” value ([1]; 350 mg, safety analysis set) was 1 (5) number of subjects (%) and the “TEAE Headache” value ([1]; 350 mg, safety analysis set) was 0 No. of subjects (%). The “TEAE Hypoaesthesia” value ([1]; 350 mg, safety analysis set) was 0 number of subjects (%), the “TEAE Infections and infestations” value ([1]; 350 mg, safety analysis set) was 5 (23) number of subjects (%) and the “TEAE Injury, poisoning and procedural complications” value ([1]; 350 mg, safety analysis set) was 0 number of subjects (%). The “TEAE Joint injury” value ([1]; 350 mg, safety analysis set) was 0 number of subjects (%), the “TEAE Lip dry” value ([1]; 350 mg, safety analysis set) was 1 (5) number of subjects (%) and the “TEAE Lymphadenopathy” value ([1]; 350 mg, safety analysis set) was 0 number of subjects (%). For the same molecule, the “TEAE Metabolism and nutrition disorders” value ([1]; 350 mg, safety analysis set) was 0 number of subjects (%), the “TEAE Musculoskeletal and connective tissue disorders” value ([1]; 350 mg, safety analysis set) was 1 (5) number of subjects (%) and the “TEAE Musculoskeletal pain” value ([1]; 350 mg, safety analysis set) was 0 number of subjects (%). For the same molecule, the “TEAE Myalgia” value ([1]; 350 mg, safety analysis set) was 1 (5) number of subjects (%), the “TEAE Myocarditis” value ([1]; 350 mg, safety analysis set) was 0 number of subjects (%) and the “TEAE Nausea” value ([1]; 350 mg, safety analysis set) was 12 (55) No. of subjects (%). The “TEAE Nervous system disorders” value ([1]; 350 mg, safety analysis set) was 1 (5) number of subjects (%), the “TEAE Ocular hyperemia” value ([1]; 350 mg, safety analysis set) was 0 number of subjects (%) and the “TEAE Oropharyngeal pain” value ([1]; 350 mg, safety analysis set) was 0 number of subjects (%). The “TEAE Pain in jaw” value ([1]; 350 mg, safety analysis set) was 0 number of subjects (%), the “TEAE Pyrexia” value ([1]; 350 mg, safety analysis set) was 0 number of subjects (%) and the “TEAE Rash” value ([1]; 350 mg, safety analysis set) was 0 No. of subjects (%). For the same molecule, the “TEAE Respiratory, thoracic and mediastinal disorders” value ([1]; 350 mg, safety analysis set) was 0 number of subjects (%), the “TEAE Rhinitis” value ([1]; 350 mg, safety analysis set) was 2 (9) No. of subjects (%) and the “TEAE Skin abrasion” value ([1]; 350 mg, safety analysis set) was 0 number of subjects (%). The “TEAE Skin and subcutaneous tissue disorders” value ([1]; 350 mg, safety analysis set) was 1 (5) number of subjects (%), the “TEAE Tension headache” value ([1]; 350 mg, safety analysis set) was 0 number of subjects (%) and the “TEAE Total” value ([1]; 350 mg, safety analysis set) was 16 (73) number of subjects (%). The “TEAE URTI” value ([1]; 350 mg, safety analysis set) was 0 No. of subjects (%), the “TEAE Vessel puncture site erythema” value ([1]; 350 mg, safety analysis set) was 0 number of subjects (%) and the “TEAE Viral URTI” value ([1]; 350 mg, safety analysis set) was 2 (9) No. of subjects (%). The “TEAE Vomiting” value ([1]; 350 mg, safety analysis set) was 2 (9) No. of subjects (%), the “Treatment-related SAEs, deaths, or discontinuations due to AEs” value ([1]; any treatment group) was “No treatment-related serious adverse events (SAEs), deaths, or discontinuations due to AEs” and the IC50 [2] was 1 nM.

— PMC6985722 (Antimicrobial Agents and Chemotherapy, 2020)
